Laboratory results as given in ChEMBL document CHEMBL3046223, “Compounds against inflammation and oxidative insult as potential agents for neurodegenerative disorders” (Med Chem Res, 2012).

Legend:
[1] = Toxicity in Rattus norvegicus (rat) assessed as mortality at 84 umol/kg, sc qd for 4 days; type: organism-based; conditions: in vivo
[2] = test system: Mus musculus; assay: Anti-inflammatory activity in Balb-C Mus musculus (mouse) assessed as inhibition of FCA-induced paw oedema at 0.15 mmol/kg, ip administered 5 min before FCA challenge measured after 3 hr relative to control; type: functional
[3] = test system: Mus musculus; assay: Anti-inflammatory activity in Balb-C Mus musculus (mouse) assessed as inhibition of FCA-induced paw oedema at 0.30 mmol/kg, ip administered 5 min before FCA challenge measured after 3 hr relative to control; type: functional
[4] = test system: Rattus norvegicus; assay: Gastrointestinal toxicity in Rattus norvegicus (rat) assessed as perforating ulcers at 84 umol/kg, sc qd for 4 days; type: organism-based; conditions: in vivo, 96 h
[5] = test system: Rattus norvegicus; assay: Gastrointestinal toxicity in Rattus norvegicus (rat) assessed as incidence of melena at 84 umol/kg, sc qd for 4 days; type: organism-based; conditions: in vivo, 96 h
[6] = target: T1, Prostaglandin G/H synthase 1 (Ovis aries) (UniProt P05979); assay: Inhibition of Ovis aries (sheep) COX1 assessed as formation of PGF2a at 200 uM by enzyme immunoassay
T1 sequence (whole entry): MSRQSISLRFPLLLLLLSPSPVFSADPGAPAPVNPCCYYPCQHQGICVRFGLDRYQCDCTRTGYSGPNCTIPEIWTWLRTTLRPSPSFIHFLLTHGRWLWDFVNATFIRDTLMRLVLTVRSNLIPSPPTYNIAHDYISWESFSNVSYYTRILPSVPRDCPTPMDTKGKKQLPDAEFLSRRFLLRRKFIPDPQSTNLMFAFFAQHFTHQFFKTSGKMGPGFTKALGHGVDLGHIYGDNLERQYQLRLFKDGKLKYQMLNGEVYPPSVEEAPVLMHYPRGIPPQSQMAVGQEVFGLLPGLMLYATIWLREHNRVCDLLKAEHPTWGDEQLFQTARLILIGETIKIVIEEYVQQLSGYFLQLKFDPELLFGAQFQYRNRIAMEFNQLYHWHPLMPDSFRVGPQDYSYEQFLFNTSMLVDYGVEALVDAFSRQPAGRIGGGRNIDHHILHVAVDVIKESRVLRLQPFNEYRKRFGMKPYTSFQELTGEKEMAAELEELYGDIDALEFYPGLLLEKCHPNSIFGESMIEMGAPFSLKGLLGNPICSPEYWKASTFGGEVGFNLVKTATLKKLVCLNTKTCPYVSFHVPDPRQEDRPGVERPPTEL

[7] = test system: Rattus norvegicus; assay: Toxicity in rat assessed as body weight change per 100 gram body weight at 84 umol/kg, sc qd for 4 days; type: organism-based; conditions: in vivo, 96 h
[8] = test system: Rattus norvegicus; assay: Anti-inflammatory activity in Rattus norvegicus Fischer-344 (rat) assessed as inhibition of carrageenan-induced paw oedema at 0.30 mmol/kg, ip administered 5 min before […] measured after 3 hr relative to control; type: functional; conditions: Fischer-344, ip
[9] = target: T2, Seed linoleate 13S-lipoxygenase-1 (Glycine max, UniProt P08170); assay: Inhibition of Glycine max (soybean) lipoxygenase assessed as formation of 13-hydroperoxylinoleic acid using sodium linoleate as substrate after 7 min
T2 sequence (P08170 whole entry): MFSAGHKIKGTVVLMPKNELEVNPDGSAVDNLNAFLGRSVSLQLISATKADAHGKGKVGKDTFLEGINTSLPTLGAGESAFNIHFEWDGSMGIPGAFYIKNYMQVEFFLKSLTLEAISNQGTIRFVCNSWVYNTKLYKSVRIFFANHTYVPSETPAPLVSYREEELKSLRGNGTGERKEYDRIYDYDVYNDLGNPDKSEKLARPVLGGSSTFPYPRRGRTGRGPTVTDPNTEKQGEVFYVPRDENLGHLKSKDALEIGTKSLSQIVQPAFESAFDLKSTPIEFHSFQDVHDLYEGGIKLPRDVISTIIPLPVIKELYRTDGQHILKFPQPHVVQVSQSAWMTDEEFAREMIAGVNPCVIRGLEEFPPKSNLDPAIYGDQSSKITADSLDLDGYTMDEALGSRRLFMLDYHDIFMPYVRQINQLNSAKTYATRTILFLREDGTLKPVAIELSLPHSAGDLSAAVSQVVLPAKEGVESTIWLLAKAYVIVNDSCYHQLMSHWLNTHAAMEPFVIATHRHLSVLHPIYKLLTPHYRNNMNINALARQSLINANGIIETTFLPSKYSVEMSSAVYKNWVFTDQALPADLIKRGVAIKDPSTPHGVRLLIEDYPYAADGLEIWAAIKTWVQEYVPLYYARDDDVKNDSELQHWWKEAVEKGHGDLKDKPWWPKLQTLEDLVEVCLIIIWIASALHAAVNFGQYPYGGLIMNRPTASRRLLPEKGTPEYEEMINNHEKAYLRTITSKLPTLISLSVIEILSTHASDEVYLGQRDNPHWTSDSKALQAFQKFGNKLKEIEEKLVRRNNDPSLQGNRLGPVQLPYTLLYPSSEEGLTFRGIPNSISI

[10] = test system: Liver microsome; assay: Antioxidant activity in Rattus norvegicus (rat) liver microsomal fraction assessed as inhibition of lipid peroxidation after 45 min by spectrophotometric analysis; type: functional, microsomes; conditions: 0.75 h
[11] = Drug uptake in Rattus norvegicus (rat) brain at 0.6 mmol/kg, ip after 30 min by RP-HPLC analysis; type: ADME, organism-based; conditions: read-out: Drug uptake
[12] = Drug uptake in Rattus norvegicus (rat) brain at 0.6 mmol/kg, ip after 120 min by RP-HPLC analysis; type: ADME, organism-based; conditions: read-out: Drug uptake
[13] = Drug uptake in Rattus norvegicus (rat) brain at 0.6 mmol/kg, ip after 60 min by RP-HPLC analysis; type: ADME, organism-based; conditions: read-out: Drug uptake
[14] = Ratio of drug level in brain to blood in Rattus norvegicus (rat) at 0.6 mmol/kg, ip after 2 hr by RP-HPLC analysis; type: ADME, organism-based
[15] = Ratio of drug level in brain to blood in Rattus norvegicus (rat) at 0.6 mmol/kg, ip after 3 hr by RP-HPLC analysis; type: ADME, organism-based
[16] = Toxicity in Rattus norvegicus (rat) assessed as mortality at 200 umol/kg, sc qd for 4 days; type: organism-based; conditions: in vivo
[17] = test system: Rattus norvegicus; assay: Gastrointestinal toxicity in Rattus norvegicus (rat) assessed as incidence of melena at 200 umol/kg, sc qd for 4 days; type: organism-based; conditions: in vivo, 96 h
[18] = test system: Rattus norvegicus; assay: Gastrointestinal toxicity in Rattus norvegicus (rat) assessed as perforating ulcers at 200 umol/kg, sc qd for 4 days; type: organism-based; conditions: in vivo, 96 h
[19] = test system: Rattus norvegicus; assay: Toxicity in Rattus norvegicus (rat) assessed as body weight change per 100 gram body weight at 200 umol/kg, sc qd for 4 days; type: organism-based; conditions: in vivo, 96 h
[20] = test system: Liver microsome; assay: Antioxidant activity in Rattus norvegicus (rat) liver microsomal fraction assessed as inhibition of lipid peroxidation at 1 mM after 45 min by spectrophotometric analysis; type: functional, microsomes
[21] = test system: Rattus norvegicus; assay: Anti-inflammatory activity in Rattus norvegicus (rat) ischemia-reperfusion model assessed as reduction of malondialdehyde formation in brain at 0.4 mmol/kg, ip qd for 4 days and dose repeated 2 hr before initiation of ischemia measured 90 min after reperfusion; type: functional

COc1ccc2c(c1)c(CC(=O)N1CCCC1C(=O)Oc1ccc(C)cc1OC)c(C)n2C(=O)c1ccc(Cl)cc1 (stereo unspecified)
mortality at 96 h [1]: 0% | inhibition in vivo at 150 µmol/kg [2]: 49% | inhibition in vivo at 300 µmol/kg [3]: 54% | Activity [4]: 0% | Activity [5]: 0% | inhibition [6]: 16% | Activity [7]: 11 g

CCOC(=O)C(CS)NC(=O)C1CCCN1C(=O)C(C)c1cccc(C(=O)c2ccccc2)c1 (stereo unspecified)
inhibition in vivo at 300 µmol/kg [8]: 52% | IC50 [9]: 170 µM | IC50 [10]: 440 µM

CC(C)Cc1ccc(C(C)C(=O)N2CCCC2C(=O)NCCS)cc1 (stereo unspecified)
concentration at 0.5 h [11]: 9780 ng/g | concentration at 2 h [12]: 35200 ng/g | concentration at 1 h [13]: 10200 ng/g

COc1ccc2cc([C@H](C)C(=O)O)ccc2c1 [NAPROXEN]
inhibition in vivo at 300 µmol/kg [8]: 51% | inhibition [6]: 52%

CC(C)Cc1ccc([C@H](C)C(=O)O)cc1 [DEXIBUPROFEN]
inhibition in vivo at 300 µmol/kg [3]: 53%

CC(C)Cc1ccc(C(C)C(=O)N2CCCC2C(=O)OCCO)cc1 (stereo unspecified)
inhibition in vivo at 300 µmol/kg [3]: 24% | IC50 [9]: 320 µM

CCOC(=O)C(CS)NC(=O)C1CCCCN1C(=O)Cc1c(C)[nH]c2ccc(OC)cc12 (stereo unspecified)
IC50 [10]: 8 µM

C[C@H](C(=O)O)c1cccc(C(=O)c2ccccc2)c1 [DEXKETOPROFEN]
inhibition in vivo at 300 µmol/kg [8]: 42%

COc1ccc2cc([C@H](C)C(=O)N3CC(O)CC3C(=O)NCCS)ccc2c1 (stereo partly specified)
Kp at 2 h [14]: 0.04 | concentration at 0.5 h [11]: 26600 ng/g | concentration at 2 h [12]: 710 ng/g | concentration at 1 h [13]: 5700 ng/g | Kp at 3 h [15]: 0.004

COc1cc(C)ccc1OC(=O)C(C)c1ccc(CC(C)C)cc1 (stereo unspecified)
inhibition in vivo at 300 µmol/kg [3]: 43% | IC50 [9]: 65 µM

CC(C(=O)NCCS)c1cccc(C(=O)c2ccccc2)c1 (stereo unspecified)
inhibition in vivo at 300 µmol/kg [8]: 39% | IC50 [10]: 650 µM

CC(C(=O)OCCCc1cccnc1)c1cccc(C(=O)c2ccccc2)c1 (stereo unspecified)
inhibition in vivo at 300 µmol/kg [8]: 61% | mortality at 96 h [16]: 33% | Activity [17]: 60% | Activity [18]: 50% | Activity [19]: -13 g | IC50 [9]: 145 µM | inhibition [6]: 87%

COc1ccc2cc(C(C)C(=O)Oc3ccc(C)cc3OC)ccc2c1 (stereo unspecified)
inhibition in vivo at 300 µmol/kg [8]: 40% | IC50 [9]: 90 µM

COc1ccc2cc(C(C)C(=O)OCCCc3cccnc3)ccc2c1 (stereo unspecified)
inhibition in vivo at 300 µmol/kg [8]: 27% | IC50 [9]: 28 µM | inhibition [6]: 71%

COc1ccc2cc(C(C)C(=O)N3CCCC3C(=O)OCCCc3cccnc3)ccc2c1 (stereo unspecified)
inhibition in vivo at 300 µmol/kg [8]: 24% | IC50 [9]: 46 µM

CC(C)Cc1ccc(C(C)C(=O)N2CCCC2C(=O)OCCO[N+](=O)[O-])cc1 (stereo unspecified)
inhibition [20]: 14% | inhibition in vivo at 300 µmol/kg [3]: 62% | IC50 [9]: 240 µM

CCOC(=O)C(CS)NC(=O)C1CCCN1C(=O)C(C)c1ccc(CC(C)C)cc1 (stereo unspecified)
concentration at 0.5 h [11]: 1590 ng/g | concentration at 2 h [12]: 27800 ng/g | concentration at 1 h [13]: 40800 ng/g

CCOC(=O)C(CS)NC(=O)C1CCCN1C(=O)Cc1c(C)n(C(=O)c2ccc(Cl)cc2)c2ccc(OC)cc12 (stereo unspecified)
Activity [21]: 3 nmol/mg | inhibition in vivo at 150 µmol/kg [2]: 25% | inhibition in vivo at 300 µmol/kg [3]: 44% | IC50 [10]: 390 µM

COc1cc(C)ccc1OC(=O)C1CCCN1C(=O)C(C)c1cccc(C(=O)c2ccccc2)c1 (stereo unspecified)
inhibition in vivo at 300 µmol/kg [8]: 13% | IC50 [9]: 60 µM

COc1ccc2cc(C(C)C(=O)N3CCCC3C(=O)Oc3ccc(C)cc3OC)ccc2c1 (stereo unspecified)
inhibition in vivo at 300 µmol/kg [8]: 20% | inhibition [6]: 16%

CC(C(=O)O)c1cccc(C(=O)c2ccccc2)c1 (stereo unspecified) [KETOPROFEN]
mortality at 96 h [16]: 50% | Activity [17]: 100% | Activity [18]: 85% | Activity [19]: -24 g | inhibition [6]: 86%

CC(C)Cc1ccc(C(C)C(=O)OCCCc2cccnc2)cc1 (stereo unspecified)
inhibition in vivo at 300 µmol/kg [3]: 59% | IC50 [9]: 45 µM

COc1ccc2c(c1)c(CC(=O)O)c(C)n2C(=O)c1ccc(Cl)cc1 [INDOMETHACIN]
mortality at 96 h [1]: 50% | inhibition in vivo at 150 µmol/kg [2]: 68% | Activity [4]: 80% | Activity [5]: 100% | Activity [7]: -15 g

CC(C)Cc1ccc(C(C)C(=O)N2CCCC2C(=O)OCCCc2ccccc2)cc1 (stereo unspecified)
inhibition in vivo at 300 µmol/kg [3]: 31% | IC50 [9]: 60 µM
